Source: ChEMBL document CHEMBL4043254, “Discovery of potential antiausterity agents from the Japanese cypress Chamaecyparis obtusa” (2017)
Activity calls are given as the source filed them. The calls are words filed in the database; no cut-off is given here.

Key:
[1] = system: CAPAN-1; test: Antiausteritic activity against human Capan1 cells in nutrient-deprived medium measured after 24 hrs by WST8 assay; type: functional
[2] = system: MIA PaCa-2; test: Antiausteritic activity against human MIAPaCa2 cells in nutrient-deprived medium measured after 24 hrs by WST8 assay; type: functional
[3] = Antiausteritic activity against human KLM1 cells in nutrient-deprived medium measured after 24 hrs by WST8 assay; type: functional
[4] = system: PANC-1; test: Antiausteritic activity against human PANC1 cells in nutrient-deprived medium measured after 24 hrs by WST8 assay; type: functional
[5] = system: PSN1; test: Antiausteritic activity against human PSN1 cells in nutrient-deprived medium measured after 24 hrs by WST8 assay; type: functional
[6] = system: PANC-1; test: Antiausteritic activity against human PANC1 cells assessed as normalized cell index by measuring cell growth inhibition at 25 uM under nutrient-deprived medium measured at 15 secs interval for 24 hrs by real time cell analysis; type: functional, cell-based
[7] = system: PANC-1; test: Induction of autophagy in human PANC1 cells assessed as increase in LC3-1 expression after 3 hrs under nutrient deprived medium by Western blot analysis; type: functional, cell-based
[8] = system: PANC-1; test: Antiausteritic activity against human PANC1 cells assessed as decrease in cell index under nutrient-deprived medium measured at 15 secs interval for 24 hrs by real time cell analysis; type: functional, cell-based
[9] = biological target: RAC-alpha serine/threonine-protein kinase (Homo sapiens) (UniProt P31749); test: Inhibition of AKT in human PANC1 cells assessed as reduction in mTOR phosphorylation at Ser2448 residue measured after 3 hrs under nutrient deprived condition by Western blot analysis; type: cell-based
Chain of RAC-alpha serine/threonine-protein kinase (Homo sapiens) (P31749 whole entry, the tested form may be a part): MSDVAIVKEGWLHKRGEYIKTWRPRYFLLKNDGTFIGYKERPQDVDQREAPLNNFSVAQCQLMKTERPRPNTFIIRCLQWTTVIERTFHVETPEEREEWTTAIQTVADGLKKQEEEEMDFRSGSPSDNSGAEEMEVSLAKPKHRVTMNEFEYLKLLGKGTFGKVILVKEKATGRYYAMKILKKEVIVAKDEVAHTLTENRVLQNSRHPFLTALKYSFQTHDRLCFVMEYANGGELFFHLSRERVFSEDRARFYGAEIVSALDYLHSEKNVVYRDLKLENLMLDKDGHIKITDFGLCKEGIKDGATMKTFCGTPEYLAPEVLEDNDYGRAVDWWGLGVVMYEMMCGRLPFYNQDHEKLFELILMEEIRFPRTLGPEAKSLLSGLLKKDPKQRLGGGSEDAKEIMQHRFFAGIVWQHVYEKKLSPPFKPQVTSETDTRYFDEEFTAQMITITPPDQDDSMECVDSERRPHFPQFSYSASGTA

[10] = system: PANC-1; test: Induction of morphological changes in human PANC1 cells assessed as nuclear fragmentation at 25 to 50 uM after 24 hrs by Hoechst 33342/propidium iodide staining based inverted microscopic analysis; type: functional, cell-based
[11] = system: PANC-1; test: Antiausteritic activity against human PANC1 cells assessed as alterations in cell morphology at 50 uM under nutrient-deprived medium measured at 5 mins interval for 2 hrs by live cell imaging analysis; type: functional, cell-based
[12] = biological target: RAC-alpha serine/threonine-protein kinase (Homo sapiens) (UniProt P31749); test: Inhibition of AKT phosphorylation at Ser473 residues in human PANC1 cells at 50 uM measured within 3 hrs under nutrient deprived condition by Western blot analysis; type: cell-based
[13] = system: PANC-1; test: Antiausteritic activity against human PANC1 cells assessed as reduction in cell migration at 50 uM under nutrient-deprived medium measured at 5 mins interval for 30 mins by live cell imaging analysis; type: functional, cell-based
[14] = biological target: RAC-alpha serine/threonine-protein kinase (Homo sapiens) (UniProt P31749); test: Inhibition of AKT in human PANC1 cells assessed as reduction in mTOR phosphorylation at Ser2448 residue at 50 uM measured after 3 hrs under nutrient deprived condition by Western blot analysis; type: cell-based
[15] = system: PANC-1; test: Induction of autophagy in human PANC1 cells assessed as increase in LC3-2 expression after 3 hrs under nutrient deprived medium by Western blot analysis; type: functional, cell-based
[16] = system: PANC-1; test: Induction of morphological changes in human PANC1 cells assessed as increase in dead cells after 24 hrs by Hoechst 33342/propidium iodide staining based inverted microscopic analysis; type: functional, cell-based
[17] = system: PANC-1; test: Antiausteritic activity against human PANC1 cells assessed as decrease in cell index by measuring cell death at 50 uM under nutrient-deprived medium measured at 15 secs interval for 4 hrs by real time cell analysis; type: functional, cell-based
[18] = system: PANC-1; test: Induction of morphological changes in human PANC1 cells assessed as increase in dead cells after 24 hrs by ethidium bromide/acridine orange staining based inverted microscopic analysis; type: functional, cell-based
[19] = system: PANC-1; test: Antiausteritic activity against human PANC1 cells assessed as cell death at 50 uM under nutrient-deprived medium measured at 5 mins interval for 8 hrs by live cell imaging analysis; type: functional, cell-based

Row | Compound | PC50 [1] [µM] | PC50 [2] [µM] | PC50 [3] [µM] | PC50 [4] [µM] | PC50 [5] [µM] | further results
1 | O=C1OC[C@H](Cc2ccc3c(c2)OCO3)[C@H]1Cc1ccc2c(c1)OCO2 [HINOKININ] | 50.1 | 21.3 | 92.5 | 64.1 | 60.1 | –
2 | CC1=C[C@@H]2[C@@H](CC1)[C@](C)(O)CC[C@H]2C(C)C | >100 | 49.1 | 69.7 | 46 | >100 | –
3 | CC(C)[C@@H]1CC[C@@](C)(O)[C@@H]2CCC(CO)=C[C@H]21 | >100 | >100 | 95.3 | >100 | >100 | –
4 | CC(=O)OCC1=C[C@@H]2[C@@H](CC1)[C@@](C)(O)CC[C@H]2C(C)C | >100 | 35.7 | 69 | – | >100 | –
5 | CC(C)[C@@H]1CC[C@](C)(O)[C@@H]2CCC(CO)=C[C@H]21 | >100 | 29.8 | 77.2 | 82.1 | 50.6 | –
6 | CC1=C[C@@H]2[C@@H](CC1=O)[C@@](C)(O)CC[C@H]2C(C)C | >100 | >100 | >100 | >100 | >100 | –
7 | C/C1=C/C(=O)CC[C@@](C)(O)CC[C@@H](C(C)C)C1=O | >100 | >100 | 98.1 | >100 | 67.7 | –
8 | COc1cc(C[C@H]2C(=O)OC[C@@H]2Cc2ccc(OC)c(OC)c2)ccc1O [ARCTIGENIN] | 1.2 | 1.9 | 0.8 | 0.5 | 0.7 | –
9 | CC1=C[C@@H]2[C@@H](CC1)[C@@](C)(O)CC[C@H]2C(C)C [T-CADINOL] | – | – | 45.1 | – | – | Activity [6]: Active; Activity [7]: Dose-dependent effect; Activity [8]: Dose-dependent effect; inhibition [9]: Dose-dependent effect; Activity [10]: Active; Activity [11]: Active; inhibition [12]: Active; Activity [13]: Active; inhibition [14]: 100%; Activity [15]: Dose-dependent effect; Activity [16]: Dose-dependent effect; Activity [17]: Active; Activity [18]: Dose-dependent effect; Activity [19]: Active
